SMILES strings stand for the structures.

In data set [1] the test system is Factor Xa. Put plainly: anti-Factor Xa titer against low molecular weight heparin standard curve, chromogenic substrate method. The data set is classed as biochemical.
The test system of the next data set is Factor II a. Put plainly: anti-Factor IIa activity, chromogenic substrate method. The data set is classed as biochemical. The following applies: data not shown.
The subject of data set [2] is Factor Xa. Put plainly: anti-Factor Xa activity, chromogenic substrate assay. The data set is classed as biochemical.
Data set [3] deals with Factor Xa. Description: neutralization of anti-Factor Xa activity by protamine sulfate, chromogenic substrate method. The data set is classed as biochemical. The following applies: different concentrations of protamine sulfate. From the text: Therefore, the phenyl-linked heparin hexasaccharide dimer I-1-1 prepared by the present disclosure is a novel heparin analog whose anticoagulant activity may be neutralized by protamine sulfate.

Data set [4] can be described thus: in vivo pharmacokinetics after subcutaneous injection in rats. The following applies: rat. As for the experimental part: Both Fondaparinux and the phenyl-linked heparin hexasaccharide dimer I-1-1 were injected subcutaneously into Wister male rats weighing 200±20 g (n≥3) at a dose of 300 IU/kg. Blood samples were collected from the jugular vein of rats at 0, 0.5, 0.75, 1, 1.25, 1.5, 1.75, 2, 2.5, 3, 4, 8, 12 and 24 hours respectively (based on the actual blood collection time). After the blood samples were centrifuged at 5000 r/min for 15 minutes, the supernatant was taken to determine the anti-Factor Xa activity by the above method, and the residual concentrations of Fondaparinux and the phenyl-linked heparin hexasaccharide dimer I-1-1 in rats were calculated. The drug concentration vs. time curve was drawn.

As for `O=C(O)C1OC(OC2C(COS(=O)(=O)O)OC(OC3C(C(=O)O)OC(OC4C(COS(=O)(=O)O)OC(OC5C(C(=O)O)OC(Oc6ccc(OC7OC(C(=O)O)C(OC8OC(COS(=O)(=O)O)C(OC9OC(C(=O)O)C(OC%10OC(COS(=O)(=O)O)C(OC%11OC(C(=O)O)C(OC%12OC(COS(=O)(=O)O)C(O)C(O)C%12NS(=O)(=O)O)C(O)C%11O)C(OS(=O)(=O)O)C%10NS(=O)(=O)O)C(O)C9OS(=O)(=O)O)C(O)C8NS(=O)(=O)O)C(O)C7O)cc6)C(O)C5O)C(NS(=O)(=O)O)C4O)C(OS(=O)(=O)O)C3O)C(NS(=O)(=O)O)C2OS(=O)(=O)O)C(O)C(O)C1OC1OC(COS(=O)(=O)O)C(O)C(O)C1NS(=O)(=O)O` (centres unmarked) [Compound I-1-1], the titer with Factor Xa [1] was 1,121.5 IU/mg. In addition, the “anti-Factor IIa activity” value in the data set on Factor II a is listed as “no significant anti-Factor Ha activity”. Moreover, the “IC50 value of the anti-Factor Xa activity” value in the data set on Factor Xa [2] (mass concentration) is 0.02815 µg/mL. The half-maximal inhibitory concentration (IC50) (in general, the midpoint of a concentration-inhibition curve) with Factor Xa [2] (molar concentration) is 7.2 nM. The “neutralization of in vitro anti-Factor Xa activity by protamine sulfate” value in the data set on Factor Xa [3] was “almost completely reversed”. For the same compound, the t1/2 in data set [4] (male, Wister, in vivo, sc) was found to be 2.269 h. In data set [4] (in vivo), the “in vivo half-life (comparison in words)” value is “comparable to that of commercially available Fondaparinux”.

`CO[C@H]1O[C@H](COS(=O)(=O)O)[C@@H](O[C@@H]2O[C@@H](C(=O)O)[C@@H](O[C@H]3O[C@H](COS(=O)(=O)O)[C@@H](O[C@@H]4O[C@H](C(=O)O)[C@@H](O[C@H]5O[C@H](COS(=O)(=O)O)[C@@H](O)[C@H](O)[C@H]5NS(=O)(=O)O)[C@H](O)[C@H]4O)[C@H](OS(=O)(=O)O)[C@H]3NS(=O)(=O)O)[C@H](O)[C@H]2OS(=O)(=O)O)[C@H](O)[C@H]1NS(=O)(=O)O` [Fondaparinux, reference compound]: the half-life (as a rule, the time needed for the level to fall by half in the phase considered) in data set [4] (male, Wister, plasma, sc, 300 IU/kg) was 2.17 h.
